The values that follow come from US7125990B2, “Imidazolyl derivatives as corticotropin releasing factor inhibitors” (Bristol-Myers Squibb COmpany, priority 2001, dated 2006).

Where only a bound is given, the exact number is not on record here.

The first test concerns the target T1, CRF1 receptors (Homo sapiens, UniProt P34998).
T1 construct: endogenous in cells; host or cells: IMR-32 cells, transformed with 2.5 µM 5'-bromo-2'-deoxyuridine for 10 days; membrane preparation
T1 sequence (P34998 24-415): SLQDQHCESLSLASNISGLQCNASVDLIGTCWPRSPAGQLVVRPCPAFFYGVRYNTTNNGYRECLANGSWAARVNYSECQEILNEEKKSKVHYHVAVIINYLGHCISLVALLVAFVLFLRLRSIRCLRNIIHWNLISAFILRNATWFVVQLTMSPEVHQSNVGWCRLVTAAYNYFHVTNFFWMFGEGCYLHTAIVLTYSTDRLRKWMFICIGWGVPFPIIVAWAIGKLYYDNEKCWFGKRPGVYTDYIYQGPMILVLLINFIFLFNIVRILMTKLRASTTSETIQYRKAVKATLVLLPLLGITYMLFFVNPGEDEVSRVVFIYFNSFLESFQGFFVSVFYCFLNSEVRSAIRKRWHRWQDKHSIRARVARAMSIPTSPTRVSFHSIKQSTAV
In words: CRF1 receptor radioligand binding assay ([125I]-oCRF competition, IMR-32 cell membranes).
Conditions: not given
In a few lines: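 Buffer: Tris pH 7.2 with MgCl2, BSA, Triton X-100, aprotinin, leupeptin; reaction stopped with ice-cold wash and filtered. Nonspecific binding set with 10 μM oCRF.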
For `Cc1cc(C)c(-n2c3ccccc3n3c(CN(CC4CC4)CC(F)(F)C(F)(F)F)c(C(F)(F)F)nc23)c(C)c1` [Example 155, Cyclopropylmethyl-(2,2,3,3,3-pentafluoro-propyl)-[2-trifluoromethyl-8-(2,4,6-trimethyl-phenyl)-8H-1,3a,8-triaza-cyclopenta[α]inden-3-ylmethyl]-amine], the Ki (in general, the dissociation constant of the complex between target and ligand, obtained from inhibition or displacement) is under 100 nM.

The test is the same for the next values; noted with them: IMR-32 cell membranes, [125I]-oCRF 100 pM; read-out: Ki (CRF-1R).
For the compound `CCCN(Cc1c(C(F)(F)F)nc2n(-c3ccc(C(C)C)cc3Br)c3ccccc3n12)CC1CCC1` [Example 195, [8-(2-Bromo-4-isopropyl-phenyl)-2-trifluoromethyl-8H-1,3a,8-triaza-cyclopenta[α]inden-3-ylmethyl]-cyclobutylmethyl-propyl-amine], the Ki was under 1000 nM. Same read-out and setting: as for `Cc1cc(C)c(-n2c3ccccc3n3c(CN(CC4CC4)CC(F)(F)F)c(C(F)(F)F)nc23)c(C)c1` [Example 150], the figure is under 100 nM.

On to `CCCN(Cc1ccccc1)C(=O)c1c(CC)nc2n1CCN2c1c(C)cc(C)cc1C` [Example 25, 2-Ethyl-7-(2,4,6-trimethyl-phenyl)-6,7-dihydro-5H-imidazo[1,2-a]imidazole-3-carboxylic acid benzyl-propyl-amide], for which the Ki is under 10000 nM. Same read-out and setting: next, `CCCN(CC1CC1)C(=O)c1c(CC)nc2n(-c3ccc(C(C)C)cc3Br)c(Cl)cn12` [Example 285, 6-Chloro-2-ethyl-7-(2-bromo-4-isopropylphenyl)-7H-imidazo[1,2-a]imidazole-3-carboxylic acid N-cyclopropylmethyl-N-propylamide]: under 1000 nM; `CCCN(CCc1ccccc1)Cc1c(C(F)(F)F)nc2n(-c3c(C)cc(C)cc3C)c3ncccc3n12` [Example 217, Phenethyl-propyl-[2-trifluoromethyl-8-(2,4,6-trimethyl-phenyl)-8H-1,3a,7,8-tetraaza-cyclopenta[α]inden-3-ylmethyl]-amine]: under 100 nM.

Take `CCCN(Cc1c(C(F)(F)F)nc2n1CCCN2c1c(C)cc(C)cc1C)CC(F)(F)F` [Example 79, Propyl-(2,2,2-trifluoro-ethyl)-[2-trifluoromethyl-8-(2,4,6-trimethyl-phenyl)-5,6,7,8-tetrahydro-imidazo[1,2-a]pyrimidin-3-ylmethyl]-amine]: the Ki was under 100 nM. Still for that read-out and setting: next, `CCN(Cc1c(C(F)(F)F)nc2n(-c3c(C)cc(C)cc3C)c3ncccc3n12)CC1CC1` [Example 223, Cyclopropylmethyl-ethyl-[2-trifluoromethyl-8-(2,4,6-trimethyl-phenyl)-8H-1,3a,7,8-tetraaza-cyclopenta[α]inden-3-ylmethyl]-amine]: under 1000 nM; `CCCCN(Cc1ccccc1)Cc1c(C(F)(F)F)nc2n(-c3c(C)cc(C)cc3C)c(Cl)cn12` [Example 311, Benzyl-butyl-[6-chloro-2-trifluoromethyl-7-(2,4,6-trimethyl-phenyl)-7H-imidazo[1,2-a]imidazol-3-ylmethyl]-amine]: under 1000 nM. Same read-out and setting: next, `Cc1cc(C)c(-n2c(Cl)cn3c(CN(CCc4ccccc4)CC(F)(F)F)c(C(F)(F)F)nc23)c(C)c1` [Example 324, [6-Chloro-2-trifluoromethyl-7-(2,4,6-trimethyl-phenyl)-7H-imidazo[1,2-a]imidazol-3-ylmethyl]-phenethyl-(2,2,2-trifluoro-ethyl)-amine]: under 1000 nM; `CCc1nc2n(c1C(=O)N(CCc1ccccc1)CCC(F)(F)F)CCN2c1c(C)cc(C)cc1C` [Example 23, 2-Ethyl-7-(2,4,6-trimethyl-phenyl)-6,7-dihydro-5H-imidazo[1,2-a]imidazole-3-carboxylic acid phenethyl-(3,3,3-trifluoro-propyl)-amide]: under 10000 nM; `CCCN(Cc1c(C(F)(F)F)nc2n(-c3c(C)cc(C)cc3C)c3ccccc3n12)CC1CC1` [Example 148, Cyclopropylmethyl-propyl-[2-trifluoromethyl-8-(2,4,6-trimethyl-phenyl)-8H-1,3a,8-triaza-cyclopenta[α]inden-3-ylmethyl]-amine]: under 100 nM. On the same count and under the same terms, as for `CCCN(CCC1CC1)Cc1c(CC)nc2n(-c3c(C)cc(C)cc3C)c3ncccc3n12` [Example 252, (2-Cyclopropyl-ethyl)-[2-ethyl-8-(2,4,6-trimethyl-phenyl)-8H-1,3a,7,8-tetraaza-cyclopenta[α]inden-3-ylmethyl]-propyl-amine], the figure is under 1000 nM; as for `Cc1cc(C)c(-n2c3ccccc3n3c(CN(CCC4CC4)CCC(F)(F)F)c(C(F)(F)F)nc23)c(C)c1` [Example 166, (2-Cyclopropyl-ethyl)-[2-trifluoromethyl-8-(2,4,6-trimethyl-phenyl)-8H-1,3a,8-triaza-cyclopenta[α]inden-3-ylmethyl]-(3,3,3-trifluoro-propyl)-amine], under 1000 nM; as for `CC(C)c1ccc(-n2c3ccccc3n3c(CN(CC4CCC4)CC(F)(F)F)c(C(F)(F)F)nc23)c(Br)c1` [Example 194, [8-(2-Bromo-4-isopropyl-phenyl)-2-trifluoromethyl-8H-1,3a,8-triaza-cyclopenta[α]inden-3-ylmethyl]-cyclobutylmethyl-(2,2,2-trifluoro-ethyl)-amine], under 1000 nM. Regarding `C=CCN(CC=C)Cc1c(C(F)(F)F)nc2n(-c3ccc(Cl)cc3Cl)c3ccccc3n12` [Example 184, Diallyl-[8-(2,4-dichloro-phenyl)-2-trifluoromethyl-8H-1,3a,8-triaza-cyclopenta[α]inden-3-ylmethyl]-amine], the Ki was under 10000 nM. On the same count and under the same terms, next, `Cc1cc(C)c(-n2c(Cl)cn3c(CN4CCC(c5ccccc5)C4)c(C(F)(F)F)nc23)c(C)c1` (stereo not shown) [Example 317, 2-Chloro-5-(3-phenyl-pyrrolidin-1-ylmethyl)-6-trifluoromethyl-1-(2,4,6-trimethyl-phenyl)-1H-imidazo[1,2-a]imidazole]: under 1000 nM. Consider `CCCN(CC1CC1)C(=O)c1c(C)nc2n1CC(=O)N2c1c(C)cc(C)cc1C` [Example 301, 2-Methyl-6-oxo-7-(2,4,6-trimethyl-phenyl)-6,7-dihydro-5H-imidazo[1,2-a]imidazole-3-carboxylic acid cyclopropylmethyl-propyl-amide], for which the inhibition constant Ki is under 1000 nM. Consider `CCCN(CC1CC1)C(=O)c1c(CC)nc2n1CCN2c1c(C)cc(Cl)cc1Cl` [Example 31, 7-(2,4-Dichloro-6-methyl-phenyl)-2-ethyl-6,7-dihydro-5H-imidazo[1,2-a]imidazole-3-carboxylic acid cyclopropylmethyl-propyl-amide], for which the Ki was under 100 nM. `CCN(Cc1c(C(F)(F)F)nc2n(-c3ccc(Cl)cc3Cl)c3ccccc3n12)CC1CC1` [Example 181, Cyclopropylmethyl-[8-(2,4-dichloro-phenyl)-2-trifluoromethyl-8H-1,3a,8-triaza-cyclopenta[α]inden-3-ylmethyl]-ethyl-amine]: the Ki was under 10000 nM. Turning to `CCc1nc2n(-c3c(C)cc(C)cc3C)c(Cl)cn2c1C(=O)N(CC1CC1)CC(F)(F)F` [Example 296, 6-Chloro-2-ethyl-7-(2,4,6-trimethylphenyl)-7H-imidazo[1,2-a]imidazole-3-carboxylic acid N-cyclopropylmethyl-N-(2,2,2-trifluoroethyl)amide], the Ki was under 10 nM. For the compound `CCN(CCC1CC1)Cc1c(C(F)(F)F)nc2n(-c3ccc(C(C)C)cc3Br)c3ccccc3n12` [Example 207, [8-(2-Bromo-4-isopropyl-phenyl)-2-trifluoromethyl-8H-1,3a,8-triaza-cyclopenta[α]inden-3-ylmethyl]-(2-cyclopropyl-ethyl)-ethyl-amine], the Ki is under 10000 nM. On the same count and under the same terms, next, `CCCN(CCC(F)(F)F)Cc1c(C(F)(F)F)nc2n(-c3ccc(C(C)C)cc3Br)c3ccccc3n12` [Example 197, [8-(2-Bromo-4-isopropyl-phenyl)-2-trifluoromethyl-8H-1,3a,8-triaza-cyclopenta[α]inden-3-ylmethyl]-propyl-(3,3,3-trifluoro-propyl)-amine]: under 1000 nM. With `CCc1nc2n(c1C(=O)N(CCC(F)(F)F)CC1CC1)CCN2c1c(C)cc(C)cc1C` [Example 9, 2-Ethyl-7-(2,4,6-trimethyl-phenyl)-6,7-dihydro-5H-imidazo[1,2-a]imidazole-3-carboxylic acid cyclopropylmethyl-(3,3,3-trifluoro-propyl)-amide], the Ki was under 100 nM. For “Phenethyl-[2-trifluoromethyl-8-(2,4,6-trimethyl-phenyl)-8H-1,3a,8-triaza-cyclopenta[α]inden-3-ylmethyl]-(3,3,3-trifluoro-propyl)-amine [Example 168]”, the Ki was under 1000 nM. Regarding `FC(F)(F)CCN(Cc1c(C(F)(F)F)nc2n(-c3ccc(Cl)cc3Cl)c3ccccc3n12)CC1CC1` [Example 180, Cyclopropylmethyl-[8-(2,4-dichloro-phenyl)-2-trifluoromethyl-8H-1,3a,8-triaza-cyclopenta[α]inden-3-ylmethyl]-(3,3,3-trifluoro-propyl)-amine], the Ki was under 10000 nM. Take `CCc1nc2n(-c3c(C)cc(C)cc3C)c(Cl)cn2c1CN(CC)CC1CC1` [Example 299, 3-[(N-Cyclopropylmethyl-N-ethylamino)methyl]-6-chloro-2-ethyl-7-(2,4,6-trimethylphenyl)-7H-imidazo[1,2-a]imidazole]: the Ki was under 100 nM. On the same count and under the same terms, as for `Cc1cc(C)c(N2CCCn3c2nc(C(F)(F)F)c3CN(CCC(F)(F)F)Cc2ccc(F)cc2)c(C)c1` [Example 91, (4-Fluoro-benzyl)-[2-trifluoromethyl-8-(2,4,6-trimethyl-phenyl)-5,6,7,8-tetrahydro-imidazo[1,2-a]pyrimidin-3-ylmethyl]-(3,3,3-trifluoro-propyl)-amine], the figure is under 1000 nM.
